Experimental data reported in patent EP2698385A1, “Detection of synthetic cannabinoids” (priority 2012, dated 2014).
Where two headings read alike, the source gives them in different places.

Experiments:
Type in all cases: binding, sheep
Antibody to Immunogen I = test system: Antibody to Immunogen I
Outline: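 Sheep anti-Immunogen I IgG coated on plates, then JWH-018 standards (0–40 ng/ml) competed with hapten-HRP conjugate for 1 h at 25°C. TMB read-out at 450 nm, 4-parameter fit. IC50 is the standard concentration giving 50% B/B0; cross-reactivity of related cannabinoids taken from the calibration curves.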

[1] = test system: Antibody to Immunogen VIII
[2] = test system: Antibody to Immunogen VII; conditions: Cross-reactants at 100 ng/ml; Antibody to Immunogen VII
Antibody to Immunogen IV = test system: Antibody to Immunogen IV
[3] = Cross-reactants at 100 ng/ml, Antibody to Immunogen I
[4] = Cross-reactants at 100 ng/ml, Antibody to Immunogen VIII
[5] = Cross-reactants at 100 ng/ml, Antibody to Immunogen IV

O=C(c1cccc2ccccc12)c1c[nH]c2ccccc12 [3-(1-naphthoyl)-1H-Indole, 3-(1-naphthoyl)-1H-indole]
%B/B0 (Antibody to Immunogen I; [3]): 15.63%
%B/B0 [1, 4]: 90.49%
%B/B0 [2]: 80.08%
%B/B0 (Antibody to Immunogen IV; [5]): 95.55%

O=C(O)CCCCn1cc(C(=O)c2cccc3ccccc23)c2ccccc21 [JWH-018 N-pentanoic acid metabolite]
%B/B0 (Antibody to Immunogen I; [3]): 4.51%
%B/B0 [1, 4]: 100.31%
%B/B0 [2]: 53.02%
%B/B0 (Antibody to Immunogen IV; [5]): 99.89%

O=C(c1cccc2ccccc12)c1cn(CCCCCO)c2ccccc12 [JWH-018 N-(5-hydroxypentyl) metabolite]
%B/B0 (Antibody to Immunogen I; [3]): 3.50%
%B/B0 [1, 4]: 57.37%
%B/B0 [2]: 53.32%
%B/B0 (Antibody to Immunogen IV; [5]): 78.42%

O=C(c1cccc2ccccc12)c1cn(CCN2CCOCC2)c2ccccc12 [WIN 55,225 (other name JWH-200), JWH-200]
%B/B0 (Antibody to Immunogen I; [3]): 3.51%
%B/B0 [1, 4]: 98.81%
%B/B0 [2]: 42.85%
%B/B0 (Antibody to Immunogen IV; [5]): 77.08%

CCCCCn1cc(C(=O)c2ccc(Cl)c3ccccc23)c2ccccc21 [JWH-398]
%B/B0 (Antibody to Immunogen I; [3]): 60.31%
%B/B0 [1, 4]: 18.66%
%B/B0 [2]: 94.47%
%B/B0 (Antibody to Immunogen IV; [5]): 6.00%

CCCCCn1cc(C(=O)c2cccc3ccccc23)c2cc(O)ccc21 [JWH-018 5-hydroxyindole metabolite]
%B/B0 (Antibody to Immunogen I; [3]): 11.79%
%B/B0 [1, 4]: 87.67%
%B/B0 [2]: 85.76%
%B/B0 (Antibody to Immunogen IV; [5]): 78.56%

CCCCCn1cc(C(=O)c2cccc3ccccc23)c2ccc(O)cc21 [JWH-018 6-hydroxyindole metabolite]
%B/B0 (Antibody to Immunogen I; [3]): 8.07%
%B/B0 [1, 4]: 89.86%
%B/B0 [2]: 68.17%
%B/B0 (Antibody to Immunogen IV; [5]): 51.00%

CCCCCn1cc(C(=O)c2cccc3ccccc23)c2c(O)cccc21 [JWH-018 4-hydroxyindole metabolite]
%B/B0 (Antibody to Immunogen I; [3]): 46.39%
%B/B0 [1, 4]: 16.72%
%B/B0 [2]: 89.96%
%B/B0 (Antibody to Immunogen IV; [5]): 20.42%

CCCCn1cc(C(=O)c2cccc3ccccc23)c2ccccc21 [JWH-073]
%B/B0 (Antibody to Immunogen I; [3]): 3.56%
%B/B0 [1, 4]: 25.50%
%B/B0 [2]: 58.34%
%B/B0 (Antibody to Immunogen IV; [5]): 13.63%

CCCCCn1cc(C(=O)c2cccc3ccccc23)c2ccccc21 [JWH-018]
%B/B0 (Antibody to Immunogen I; [3]): 5.19%
%B/B0 (Antibody to Immunogen I; JWH-018 standard 0.625 ng/ml): 77%
%B/B0 (Antibody to Immunogen I; JWH-018 standard 1.25 ng/ml): 62%
%B/B0 (Antibody to Immunogen I; JWH-018 standard 2.5 ng/ml): 44%
%B/B0 (Antibody to Immunogen I; JWH-018 standard 5 ng/ml): 31%
%B/B0 (Antibody to Immunogen I; JWH-018 standard 10 ng/ml): 20%
%B/B0 (Antibody to Immunogen I; JWH-018 standard 20 ng/ml): 14%
%B/B0 (Antibody to Immunogen I; JWH-018 standard 40 ng/ml): 9%
IC50 (Antibody to Immunogen I; Table 3a standard curve, standard concentration which produces 50% B/B0): 2.016 ng/mL
%B/B0 [1, 4]: 17.66%
%B/B0 ([1]; JWH-018 standard 1 ng/ml): 79%
%B/B0 ([1]; JWH-018 standard 3 ng/ml): 63%
%B/B0 ([1]; JWH-018 standard 5 ng/ml): 51%
%B/B0 ([1]; JWH-018 standard 10 ng/ml): 40%
%B/B0 ([1]; JWH-018 standard 20 ng/ml): 29%
%B/B0 ([1]; JWH-018 standard 40 ng/ml): 22%
%B/B0 ([1]; JWH-018 standard 80 ng/ml): 16%
IC50 ([1]; Table 3c standard curve, standard concentration which produces 50% B/B0): 5.230 ng/mL
%B/B0 [2]: 67.66%
%B/B0 (Antibody to Immunogen IV; [5]): 6.80%
%B/B0 (Antibody to Immunogen IV; JWH-018 standard 1.25 ng/ml): 87%
%B/B0 (Antibody to Immunogen IV; JWH-018 standard 2.5 ng/ml): 68%
%B/B0 (Antibody to Immunogen IV; JWH-018 standard 5 ng/ml): 42%
%B/B0 (Antibody to Immunogen IV; JWH-018 standard 10 ng/ml): 26%
%B/B0 (Antibody to Immunogen IV; JWH-018 standard 20 ng/ml): 16%
%B/B0 (Antibody to Immunogen IV; JWH-018 standard 40 ng/ml): 10%
%B/B0 (Antibody to Immunogen IV; JWH-018 standard 80 ng/ml): 7%
IC50 (Antibody to Immunogen IV; Table 3b standard curve, standard concentration which produces 50% B/B0): 4.133 ng/mL
